Data from patent US20210369720A1, “SYNERGISTIC COMPOSITION HAVING NEUROPROTECTIVE PROPERTIES AND METHODS OF USE THEREOF” (Rutgers, The State University of New Jersey, priority 2018, published 2021).

Columns and labels:
[1] = test system: phosphorylated α-synuclein (p-α-Syn); assay: Immunohistochemical staining of p-α-Syn, Syn^Tg mice; type: in vivo; details: EHT 12 mg/kg/day and/or caffeine 50 mg/kg/day until six months of age, vs untreated Syn^Tg mice
Text: (§1) Thy1-α-synuclein transgenic mice (Syn^Tg) on BDF1 background overexpressing human wild-type α-synuclein under the control of the Thy1 promoter were maintained by mating heterozygous transgenic females with WT BDF1 males (Rockenstein E, et al. (2002) Differential neuropathological alterations in transgenic mice expressing alpha-synuclein from the platelet-derived growth factor and Thy-1 promoters. J Neurosci Res 68(5):568-578). BDF1 mice (mixed C57BL/6-DBA/2) were generated every three months by mating female C57BL/6 (The Jackson Laboratory) and male DBA/2 mice (Charles River). Experiments were performed with male transgenic mice and their WT littermates. […] Wild-type littermates received regular water and control chow. […] At two months of age, mice were inoculated with α-Syn PFF unilaterally in the striatum. These treatments continued throughout the experiment until animals were sacrificed. Mice were weighed and their food and water intake was quantified weekly. […]
(§2) Vectastain elite ABC kit (Vector Laboratories, Burlingame, Calif.) and 3,3′-diaminobenzidine (Sigma-Aldrich) were used for amplifying and color development. […] For other stains, the whole microscopic field was analyzed. For p-α-Syn stains in the cortex, four matching regions in each of two sections per animal were counted.

[2] = test system: MAP2; assay: Immunofluorescence staining of MAP2 in the cortex, Syn^Tg mice; type: in vivo; details: EHT 12 mg/kg/day and/or caffeine 50 mg/kg/day until six months of age
Text: as §1, with “weekly. Animals were housed 2-5/cage in an AAALAC approved facility in a temperature- and humidity-controlled environment under a 12-hour light/dark cycle and were maintained on a diet of lab chow and water ad libitum.” for “weekly.”

[3] = test system: Iba1; assay: Immunohistochemical staining of Iba-1 in the striatum, Syn^Tg mice; type: in vivo; details: EHT 12 mg/kg/day and/or caffeine 50 mg/kg/day until six months of age
Text: Neuroinflammation is one of the neuropathological features of PD and models of α-synucleinopathy including Syn^Tg mice (Lee K W, et al. (2011) Enhanced phosphatase activity attenuates alpha-synucleinopathy in a mouse model. J Neurosci 31(19):6963-6971).
Thy1-α-synuclein transgenic mice (Syn^Tg) on BDF1 background overexpressing human wild-type α-synuclein under the control of the Thy1 promoter were maintained by mating heterozygous transgenic females with WT BDF1 males (Rockenstein E, et al. (2002) Differential neuropathological alterations in transgenic mice expressing alpha-synuclein from the platelet-derived growth factor and Thy-1 promoters. J Neurosci Res 68(5):568-578). BDF1 mice (mixed C57BL/6-DBA/2) were generated every three months by mating female C57BL/6 (The Jackson Laboratory) and male DBA/2 mice (Charles River). Experiments were performed with male transgenic mice and their WT littermates. […] Wild-type littermates received regular water and control chow. […] Mice were weighed and their food and water intake was quantified weekly. […]
as §2

[4] = test system: α-Syn PFF inoculated WT mice; assay: Morris Water Maze, α-Syn PFF inoculated WT mice; type: in vivo; details: EHT 12 mg/kg/day and/or caffeine 50 mg/kg/day, 6 months post-inoculation, test also not affected by PFF inoculation
Text: as §1, with “weekly. Animals were housed 2-5/cage in an AAALAC approved facility in a temperature- and humidity-controlled environment under a 12-hour light/dark cycle and were maintained on a diet of lab chow and water ad libitum.” for “weekly.”

[5] = test system: Iba-1; assay: Immunohistochemical staining of Iba-1 in the striatum, α-Syn PFF inoculated WT mice; type: in vivo; details: EHT 12 mg/kg/day and/or caffeine 50 mg/kg/day, vs untreated α-Syn PFF inoculated group
Text: as §1, with “weekly. Animals were housed 2-5/cage in an AAALAC approved facility in a temperature- and humidity-controlled environment under a 12-hour light/dark cycle and were maintained on a diet of lab chow and water ad libitum.” for “weekly.”

[6] = test system: dopamine; assay: Striatal dopamine content by HPLC-MS, α-Syn PFF inoculated WT mice; type: in vivo; details: each compound alone, EHT 12 mg/kg/day or caffeine 50 mg/kg/day, vs untreated α-Syn PFF inoculated mice
Text: as §1, with “weekly. Animals were housed 2-5/cage in an AAALAC approved facility in a temperature- and humidity-controlled environment under a 12-hour light/dark cycle and were maintained on a diet of lab chow and water ad libitum.” for “weekly.”

[7] = molecular target: T1, PP2A methylesterase (PME-1) (Homo sapiens, UniProt Q9Y570); details: cited from earlier work
T1 sequence (Q9Y570 1-386): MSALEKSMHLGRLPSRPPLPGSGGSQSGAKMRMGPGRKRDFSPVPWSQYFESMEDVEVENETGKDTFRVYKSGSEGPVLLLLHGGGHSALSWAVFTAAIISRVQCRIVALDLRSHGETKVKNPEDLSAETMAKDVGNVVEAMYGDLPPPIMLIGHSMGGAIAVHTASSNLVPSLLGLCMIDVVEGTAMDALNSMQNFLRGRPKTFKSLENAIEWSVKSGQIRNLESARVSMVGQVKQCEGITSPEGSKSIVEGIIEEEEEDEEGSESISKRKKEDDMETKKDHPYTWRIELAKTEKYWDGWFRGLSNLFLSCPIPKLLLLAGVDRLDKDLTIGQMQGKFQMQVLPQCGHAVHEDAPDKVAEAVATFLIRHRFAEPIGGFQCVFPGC

In the case of CCCCCCCCCCCCCCCCCCCC(=O)NCCc1c[nH]c2ccc(O)cc12 [EHT, eicosanoyl-5-hydroxytryptamide], the “number of p-α-Syn immunoreactive cells, hippocampus (FIG. 2B)” value [1] is reported as “reduced p-α-Syn positive cells”, the “MAP2 in the cortex (neuritic integrity)” value [2] is reported as “did not improve this profile” and the “microglial activation (Iba1) in the striatum” value [3] is reported as “partially but insignificantly attenuated”. For the same molecule, the “Learning and memory task on the Morris Water Maze” value [4] was “not affected”, the “microglial activation (Iba-1) in the contralateral striatum” value [5] was “only a partial effect that was statistically insignificant” and the “microglial activation (Iba-1) in the ipsilateral striatum” value [5] was “only a partial effect that was statistically insignificant”. For the same molecule, the “dopamine (DA) content in lysates of the ipsilateral striatum, benefit in words” value [6] was “did not have a significant benefit” and the “inhibition of the activity of the PP2A methylesterase (PME-1)” value [7] was “inhibit the activity”.
